Six molecules from patent US7622446B2, “Polypeptides, derivatives and uses thereof” (The Open University, priority 2001, dated 2009) can be followed below.

Common to all, as to type: in vivo, chick
The subject of series [1] is chicks. As to the kind of experiment: anti-APP (mb22C11) induced amnesia, passive avoidance task. To be noted: FIG. 4; mb22C11 30 minutes pretraining, peptide 5 minutes pretraining; memory tested 24 hours posttraining. As to the method: Commercially obtained Ross Chunky eggs were incubated and hatched in brooders and held until 16±6 hours old. Chicks were placed in pairs in small aluminium pens. Following an equilibration period of an hour, the chicks were pretrained and trained essentially as described by Lossner and Rose (J. Neurochem. 41, 1357-1363 (1983), the contents of which are incorporated herein by reference). Pretraining involved three 10 s presentations of a small (2 mm diameter) white bead, at approximately 5 minute intervals. […] Two training techniques were used: “strong” and “weak” training. In both, 5 to 10 minutes after the last pre-training trial, chicks were trained by a 10 s presentation of a 4 mm diameter chrome bead, which had been dipped in the bitter-tasting methylanthranilate. Control chicks pecked at a water-coated or dry bead. In the “strong” version of the task, 100% methylanthranilate was used. In the “weak” version, 10% methylanthranilate was used. Chicks spontaneously pecked at the training or control beads within 20 s. Chicks that peck at the bitter bead evinced a disgust reaction and would not normally peck at a similar, but dry bead for some hours subsequently. […] Recall is calculated as a percent avoidance score (percentage of chicks which avoid the chrome bead) and as a discrimination score (percentage of chicks which avoid the chrome but peck at the white bead). […]

For series [2], the system named is chicks. The experiment in a line: β-amyloid 12-28 induced amnesia, passive avoidance task, strong training. The procedure:
(§1) Commercially obtained Ross Chunky eggs were incubated and hatched in brooders and held until 16±6 hours old. Chicks were placed in pairs in small aluminium pens. Following an equilibration period of an hour, the chicks were pretrained and trained essentially as described by Lossner and Rose (J. Neurochem. 41, 1357-1363 (1983), the contents of which are incorporated herein by reference). Pretraining involved three 10 s presentations of a small (2 mm diameter) white bead, at approximately 5 minute intervals. […] Two training techniques were used: “strong” and “weak” training. In both, 5 to 10 minutes after the last pre-training trial, chicks were trained by a 10 s presentation of a 4 mm diameter chrome bead, which had been dipped in the bitter-tasting methylanthranilate. Control chicks pecked at a water-coated or dry bead. In the “strong” version of the task, 100% methylanthranilate was used. In the “weak” version, 10% methylanthranilate was used. Chicks spontaneously pecked at the training or control beads within 20 s. Chicks that peck at the bitter bead evinced a disgust reaction and would not normally peck at a similar, but dry bead for some hours subsequently. At various times following training chicks were tested, by offering them a dry 4 mm diameter chrome bead, followed 10 minutes later by a small (2 mm diameter) white bead, each for 20 to 30 s. Animals were tested by an experimenter blind as to which treatment each chick had received. Chicks are considered to remember the task if they avoid the chrome bead at test but peck at the white bead (discriminate), and to have forgotten it if they peck at both beads. Recall is calculated as a percent avoidance score (percentage of chicks which avoid the chrome bead) and as a discrimination score (percentage of chicks which avoid the chrome but peck at the white bead). […] Each chick was trained and tested only once and differences between groups tested for statistical significance by g-test described by Sokal and Rohlf (Biometry: the Principles and Practice of Statistics in Biological Research (2nd edition), W H Freeman, New York (1981)), the contents of which are incorporated herein by reference. The validity of this particular training task used to assess memory formation is extensively discussed by Andrew (Neural and Behavioural Plasticity: the Use of the Domestic Chick as a Model, Oxford University Press, Oxford, UK (1991), the contents of which are incorporated herein by reference.
(§2) Thus the learning experience is not committed to long-term memory. Agents that are memory enhancers can thus be tested. A memory enhancing agent, administered to a chick trained on the weak learning task, produces an increase in retention—increased avoidance of the chrome bead—at 24 hours. That is, such memory enhancers help convert weak to strong learning by enabling the transition from shorter to longer-term memory.
(§3) Bilateral intracranial injections ([…]) of either saline, or solutions in saline of different peptides (0.5 to 5 μg/hemisphere) homologous to different regions of the external domain of human APP were injected intracerebrally into a specific brain region, known to be required for memory formation (the intermediate hyperstriatum ventrale) at different time-points pre- or post-training using a […] fitted with a plastic sleeve to allow a penetration of 3 mm. After completion of the injection, the needle was kept in place for 5 s. Correct placement was ensured by using a specially designed headholder described by Davis et al (Physiol. Behav. 22, 177-184 (1979), the contents of which are incorporated herein by reference) and was routinely visually monitored postmortem. Peptides or other substances were administered at various times either before or after the training protocol. Chicks were tested at different time points post-training as described above.

For series [3], the system named is chicks. As to the kind of experiment: Memory enhancement on weak training (10% methylanthranilate), passive avoidance task. Conditions: for effect of differing doses on weak training (percent avoidance): 30 mins before training, RER 0.2, 1.0, 2.0 μg/hemisphere, Ac-RER 4.0, 6.0 μg/hemisphere. As to the method: as §1, §2
as §3, with “above. […]” for “above.”

The test system of series [4] is chicks. The experiment in a line: APP-antisense induced amnesia, passive avoidance task, strong training. Conditions: for effect on APP-antisense induced amnesia (percent avoidance): FIG. 5. As to the method: Commercially obtained Ross Chunky eggs were incubated and hatched in brooders and held until 16±6 hours old. Chicks were placed in pairs in small aluminium pens. Following an equilibration period of an hour, the chicks were pretrained and trained essentially as described by Lossner and Rose (J. Neurochem. 41, 1357-1363 (1983), the contents of which are incorporated herein by reference). Pretraining involved three 10 s presentations of a small (2 mm diameter) white bead, at approximately 5 minute intervals. […] Two training techniques were used: “strong” and “weak” training. In both, 5 to 10 minutes after the last pre-training trial, chicks were trained by a 10 s presentation of a 4 mm diameter chrome bead, which had been dipped in the bitter-tasting methylanthranilate. Control chicks pecked at a water-coated or dry bead. In the “strong” version of the task, 100% methylanthranilate was used. In the “weak” version, 10% methylanthranilate was used. Chicks spontaneously pecked at the training or control beads within 20 s. Chicks that peck at the bitter bead evinced a disgust reaction and would not normally peck at a similar, but dry bead for some hours subsequently. At various times following training chicks were tested, by offering them a dry 4 mm diameter chrome bead, followed 10 minutes later by a small (2 mm diameter) white bead, each for 20 to 30 s. Animals were tested by an experimenter blind as to which treatment each chick had received. Chicks are considered to remember the task if they avoid the chrome bead at test but peck at the white bead (discriminate), and to have forgotten it if they peck at both beads. Recall is calculated as a percent avoidance score (percentage of chicks which avoid the chrome bead) and as a discrimination score (percentage of chicks which avoid the chrome but peck at the white bead). […]
as §3, with “After completion of the injection, the needle was kept in place for 5 s.” left out, “Peptides or other substances were administered at various times either before or after the training protocol. Chicks were tested at different time points post-training as described above.” left out

The mark [5] stands for this setting: FIGS. 7-9, peptide 30 minutes pretraining, memory tested 24 hours posttraining.
Where [6] appears, read: AS oligodeoxynucleotide 12 hours pretraining, peptide 30 minutes pretraining, strong learning task.
Where [7] appears, read: FIG. 10, 2 μg/hemisphere 20 mins prior to training after β-amyloid 12-28 (2 μg/hemisphere) 30 mins prior to training, measured 20 mins after administration.

No end group written: not given here.

For Arg-Glu-Arg-Met-Ser (RERMS), the “effect on anti-APP induced amnesia (percent avoidance)” value with chicks [1] was “will prevent antibody induced memory loss”. Also, the “effect on β-amyloid 12-28 induced amnesia (percent avoidance)” value in the series on chicks [2] (FIG. 3, β-amyloid 12-28 30 minutes pretraining, peptide 20 minutes pretraining, memory tested 24 hours posttraining) was “memory retention is restored”. Further, the “effect on weak training (percent avoidance)” value in the series on chicks [3] (setting [5]) is on record as “enhance memory at 24 hours”. The “effect on APP-antisense induced amnesia (percent avoidance)” value in the series with chicks [4] (setting [6]) was “avoided to a substantial extent”.

With AKERLEAKHRERMSQVM [APP 319-335], in the series on chicks [3] (setting [5]), the “effect on weak training (percent avoidance)” value is listed as “enhance memory at 24 hours”. Moreover, the “effect on APP-antisense induced amnesia (percent avoidance: total avoidance and discrimination)” value with chicks [4] (FIG. 6, AS oligodeoxynucleotide 12 hours pretraining, peptide 30 minutes pretraining, tested 30 minutes posttraining) is recorded as “can prevent antisense induced memory loss”.

With `CC(=O)NC(CCCNC(=N)N)C(=O)NC(CCC(=O)O)C(=O)OC(CCCNC(=N)N)C(=O)O` (centres unmarked) [Ac-RER], the “effect on β-amyloid 12-28 induced amnesia (percent avoidance)” value is given as “less than that of RER” in the series with chicks [2] (setting [7]); “have the effect of restoring memory” in the series on chicks [2] (FIG. 10, 2 μg/hemisphere 20 mins prior to training after β-amyloid 12-28 (2 μg/hemisphere) 30 mins prior to training, measured 20 mins after administration, listed as AC-RER); “has the effect of restoring memory” with chicks [2] (FIG. 13, 4 μg/hemisphere 60, 20 or 30 mins prior to training (before, after or together with β-amyloid 12-28 2 μg/hemisphere)). Moreover, the “stability after administration (indicated by FIG. 10 results)” value in the series on chicks [2] (FIG. 10, inferred from memory-restorative effect compared with RER) is “more stable after administration”. The “effect on weak training (percent avoidance)” value is on record as “has the effect of improving the memory of weakly trained chicks” in the series with chicks [3] (FIG. 11, 2 μg/hemisphere 30 mins before training) and “still significant, although less than 30 minutes after administration” in the series with chicks [3] (FIG. 11, 2 μg/hemisphere 60 mins before training). Further, the “effect of differing doses on weak training (percent avoidance)” value in the series on chicks [3] (FIG. 12) is recorded as “have the effect of improving the memory of weakly-trained chicks”. In the series on chicks [3] (FIG. 12, Ac-RER compared with RER), the “dose required to obtain a comparable effect on weak training” value is on record as “higher doses of Ac-RER than of RER”. Besides, the “stability after administration (indicated by FIG. 12 results)” value in the series with chicks [3] (FIG. 12, inferred from the doses required) is recorded as “more stable after administration than RER”.

“AS oligodeoxynucleotide: 16-mer end-protected phosphodiester oligodeoxynucleotide 5′-CCC GAG GAC TGA GCC A-3′ (SEQ ID No: 21) against APP mRNA, antisense form (antisense CCCGAGGACTGAGCCA; end-protected phosphodiester DNA, nucleotides 2 and 13 modified, nature not given here) [reference compound]”: the “effect of oligodeoxynucleotide on memory (percent avoidance)” value in the series on chicks [4] (FIG. 5a, 0.6 to 1.0 μg in 2 μl, 12 hours pretraining, strong learning task) is on record as “had a significant effect of memory loss”.

As for Arg-Glu-Arg (RER), the “effect on β-amyloid 12-28 induced amnesia (percent avoidance)” value with chicks [2] (setting [7]) was “have the effect of restoring memory”. Also, the “effect of differing doses on weak training (percent avoidance)” value in the series with chicks [3] (FIG. 12) is given as “have the effect of improving the memory of weakly-trained chicks”. Besides, in the series with chicks [3] (setting [5]), the “effect on weak training (percent avoidance)” value is on record as “enhances memory at 24 hours”.

Regarding “Arg-Ser-Ala-Glu-Arg (RSAER) [reference compound]”, the “effect on APP-antisense induced amnesia (percent avoidance)” value with chicks [4] (setting [6]) was “absent”.
